Structures are written as SMILES. Where only a bound is given, the exact number is not on record here.

We go through 21 compounds from patent publication US20260258048A1, “LACTAM-CONTAINING IMIDAZOPYRIDAZINE IL-17 INHIBITOR COMPOUNDS” (Janssen Pharmaceutica NV, priority 2023, published 2026).

The test system of experiment [1] is IL-17A-induced G-CSF production in human normal keratinocyte (NHK). The experiment in a line: NHK assay: IL-17A-induced G-CSF production in normal human keratinocytes. Type of experiment: cell-based. As to conditions: IL-17A 5 ng/mL, 24 h, class of the average IC50 where tested more than once. Put shortly: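 Adult keratinocytes at 3000-4000 cells/well; recombinant human IL-17A pre-incubated 1 h at rt with titrated compound, then added to cells (final 5 ng/mL IL-17A, 0.2% DMSO, 5% FBS) for 24 h at 37 °C. Supernatant G-CSF quantified by HTRF against a standard curve to give IC50; viability checked by CellTiter-Glo versus DMSO.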

Experiment [2] concerns the target IL-17A(FLAG-tagged): IL-17RA(His-tagged) (Homo sapiens, UniProt Q16552, K93Q). The experiment in a line: IL-17A(FLAG-tagged): IL-17RA(His-tagged) binding disruption Eu-HTRF assay. As to conditions: class of the average IC50 where tested more than once. Put shortly:
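Compound (22-point, 2-fold series) was pre-incubated 1 h at rt with FLAG-IL-17A, added as a 2× solution (1 μM). A 2× mix of C-terminal 10×His IL-17RA, Eu-anti-FLAG donor and D2-anti-His acceptor in PBS/0.01% Triton X-100/200 mM KF was then added for 2 h at rt. The 665/615 nm ratio was fitted to one-site competition for IC50.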
Background: TR-FRET usually uses a lanthanide donor and a delayed reading to cut background.

Sequence of UniProt Q16552 (Q16552 with tags, fused parts or gaps K93Q): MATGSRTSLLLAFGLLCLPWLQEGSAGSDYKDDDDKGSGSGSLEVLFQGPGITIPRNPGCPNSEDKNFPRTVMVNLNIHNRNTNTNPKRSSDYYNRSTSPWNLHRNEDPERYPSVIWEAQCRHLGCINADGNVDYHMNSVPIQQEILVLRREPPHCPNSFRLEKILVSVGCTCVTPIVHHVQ

Usually IC50 stands for the concentration at which inhibition is half-maximal. Low values mean greater potency in that assay, high ones weaker potency in that assay. For the compound `O=C(N[C@H](c1cn2ncc(CC3CC(F)(F)CNC3=O)cc2n1)C1CCC(F)(F)CC1)c1nonc1C1CC1` (single isomer, unassigned) [Example 1, 4-Cyclopropyl-N—((S)-(7-(((R*)-5,5-difluoro-2-oxopiperidin-3-yl)methyl)imidazo[1,2-b]pyridazin-2-yl)(4,4-difluorocyclohexyl)methyl)-1,2,5-oxadiazole-3-carboxamide], the IC50 was less than 0.4 µM in experiment [1] and less than 400 nM in experiment [2].
Take `O=C(N[C@H](c1cn2ncc(CC3CC(F)(F)CNC3=O)cc2n1)C1CCC(F)(F)CC1)c1nonc1C1CC1` (single isomer, unassigned) [Example 2, 4-Cyclopropyl-N—((S)-(7-(((S*)-5,5-difluoro-2-oxopiperidin-3-yl)methyl)imidazo[1,2-b]pyridazin-2-yl)(4,4-difluorocyclohexyl)methyl)-1,2,5-oxadiazole-3-carboxamide]: the values for the IC50 in experiment [1] and in experiment [2] were more than 4 µM and 400 to 4000 nM, respectively.
With `COc1nonc1C(=O)N[C@@H](CCC(C)(C)C(F)(F)F)c1cn2ncc(CC3C[C@@H](C(F)(F)F)NC3=O)cc2n1` (single isomer, unassigned) [Example 5, 4-Methoxy-N-[(1S)-5,5,5-trifluoro-4,4-dimethyl-1-[7-[[(3R*,5S)-2-oxo-5-(trifluoromethyl)pyrrolidin-3-yl]methyl]imidazo[1,2-b]pyridazin-2-yl]pentyl]-1,2,5-oxadiazole-3-carboxamide], the IC50 in experiment [1] is more than 4 µM; in experiment [2], more than 4000 nM.
On the same counts, the results for `COc1nonc1C(=O)N[C@@H](CCC(C)(C)C(F)(F)F)c1cn2ncc(CC3C[C@@H](C(F)(F)F)NC3=O)cc2n1` (single isomer, unassigned) [Example 6, 4-Methoxy-N-[(1S)-5,5,5-trifluoro-4,4-dimethyl-1-[7-[[(3S*,5S)-2-oxo-5-(trifluoromethyl)pyrrolidin-3-yl]methyl]imidazo[1,2-b]pyridazin-2-yl]pentyl]-1,2,5-oxadiazole-3-carboxamide] are less than 0.4 µM and less than 400 nM.
On the same counts, the results for `COc1nonc1C(=O)N[C@H](c1cn2ncc(CC3C[C@@H](C(F)(F)F)NC3=O)cc2n1)C1CCC(F)(F)CC1` (single isomer, unassigned) [Example 7, N—[(S)-(4,4-Difluorocyclohexyl)-[7-[[(3R*,5S)-2-oxo-5-(trifluoromethyl)pyrrolidin-3-yl]methyl]imidazo[1,2-b]pyridazin-2-yl]methyl]-4-methoxy-1,2,5-oxadiazole-3-carboxamide] are less than 0.4 µM and less than 400 nM.
On the same counts, the results for `COc1nonc1C(=O)N[C@H](c1cn2ncc(CC3C[C@@H](C(F)(F)F)NC3=O)cc2n1)C1CCC(F)(F)CC1` (single isomer, unassigned) [Example 8, N—((S)-(4,4-Difluorocyclohexyl)(7-(((3S*,5S)-2-oxo-5-(trifluoromethyl)pyrrolidin-3-yl)methyl)imidazo[1,2-b]pyridazin-2-yl)methyl)-4-methoxy-1,2,5-oxadiazole-3-carboxamide] are more than 4 µM and more than 4000 nM.
Regarding `Cc1nonc1C(=O)N[C@H](c1cn2ncc(CC3C[C@@H](C(F)(F)F)NC3=O)cc2n1)C1CCC(F)(F)CC1` (single isomer, unassigned) [Example 9, N—[(S)-(4,4-Difluorocyclohexyl)-[7-[[(3S*,5S)-2-oxo-5-(trifluoromethyl)pyrrolidin-3-yl]methyl]imidazo[1,2-b]pyridazin-2-yl]methyl]-4-methyl-1,2,5-oxadiazole-3-carboxamide], the IC50 in experiment [1] is less than 0.4 µM; in experiment [2], less than 400 nM.
For `Cc1nonc1C(=O)N[C@H](c1cn2ncc(CC3C[C@@H](C(F)(F)F)NC3=O)cc2n1)C1CCC(F)(F)CC1` (single isomer, unassigned) [Example 10, N—[(S)-(4,4-Difluorocyclohexyl)-[7-[[(3R*,5S)-2-oxo-5-(trifluoromethyl)pyrrolidin-3-yl]methyl]imidazo[1,2-b]pyridazin-2-yl]methyl]-4-methyl-1,2,5-oxadiazole-3-carboxamide], the IC50 in experiment [1] was more than 4 µM; in experiment [2], more than 4000 nM.
On to `O=C(N[C@H](c1cn2ncc(C[C@@]34CCC[C@H](C3)NC4=O)cc2n1)C1CCC(F)(F)CC1)c1nonc1C1CC1` (single isomer, unassigned) [Example 11], for which the IC50 in experiment [1] (Homo sapiens, Keratinocyte) was less than 0.4 µM; in experiment [2] it was less than 400 nM.
Take `CC1(C)CC(Cc2cnn3cc([C@@H](NC(=O)c4nonc4C4CC4)C4CCC(F)(F)CC4)nc3c2)C(=O)N1` (single isomer, unassigned) [Example 13, 4-Cyclopropyl-N—[(S)-(4,4-difluorocyclohexyl)-[7-[[(3R*)-5,5-dimethyl-2-oxo-pyrrolidin-3-yl]methyl]imidazo[1,2-b]pyridazin-2-yl]methyl]-1,2,5-oxadiazole-3-carboxamide]: the IC50 is 0.4 to 4 µM in experiment [1] (Homo sapiens, Keratinocyte) and less than 400 nM in experiment [2].
`CC1(C)C[C@H](Cc2cnn3cc([C@@H](NC(=O)c4nonc4C4CC4)C4CCC(F)(F)CC4)nc3c2)C(=O)N1` (single isomer, unassigned) [Example 14]: the IC50 was more than 4 µM in experiment [1] (Homo sapiens, Keratinocyte) and more than 4000 nM in experiment [2].
On the same counts, the results for `CC1(C)CNC(=O)C1Cc1cnn2cc([C@@H](NC(=O)c3nonc3C3CC3)C3CCC(F)(F)CC3)nc2c1` (single isomer, unassigned) [Example 15, 4-Cyclopropyl-N—[(S)-(4,4-difluorocyclohexyl)-[7-[[(3R*)-4,4-dimethyl-2-oxo-pyrrolidin-3-yl]methyl]imidazo[1,2-b]pyridazin-2-yl]methyl]-1,2,5-oxadiazole-3-carboxamide] are more than 4 µM and more than 4000 nM.
In the case of `CC1(C)CNC(=O)C1Cc1cnn2cc([C@@H](NC(=O)c3nonc3C3CC3)C3CCC(F)(F)CC3)nc2c1` (single isomer, unassigned) [Example 16, 4-Cyclopropyl-N—[(S)-(4,4-difluorocyclohexyl)-[7-[[(3S*)-4,4-dimethyl-2-oxo-pyrrolidin-3-yl]methyl]imidazo[1,2-b]pyridazin-2-yl]methyl]-1,2,5-oxadiazole-3-carboxamide], the IC50 was more than 4 µM in experiment [1] and 400 to 4000 nM in experiment [2].
Regarding `O=C(N[C@H](c1cn2ncc(C[C@@]34CC[C@H](C3)NC4=O)cc2n1)C1CCC(F)(F)CC1)c1nonc1C1CC1` (single isomer, unassigned) [Example 17], the IC50 in experiment [1] (Homo sapiens, Keratinocyte) was more than 4 µM; in experiment [2], 400 to 4000 nM.
On the same counts, the results for `O=C(N[C@H](c1cn2ncc(C[C@]34CC[C@@H](C3)NC4=O)cc2n1)C1CCC(F)(F)CC1)c1nonc1C1CC1` (single isomer, unassigned) [Example 18] are 0.4 to 4 µM and 400 to 4000 nM.
On the same counts, the results for `CC[C@@H](c1cnn2cc([C@@H](NC(=O)c3nonc3C3CC3)C3CCC(F)(F)CC3)nc2c1)[C@@H]1C[C@@H](C(F)(F)F)NC1=O` (single isomer, unassigned) [Example 19] are less than 0.4 µM and less than 400 nM.
For the compound `O=C(N[C@H](c1cn2ncc(CC3CCNC3=O)cc2n1)C1CCC(F)(F)CC1)c1nonc1C1CC1` (single isomer, unassigned) [Example 21, 4-Cyclopropyl-N—[(S)-(4,4-difluorocyclohexyl)-[7-[[(3R*)-2-oxopyrrolidin-3-yl]methyl]imidazo[1,2-b]pyridazin-2-yl]methyl]-1,2,5-oxadiazole-3-carboxamide], the IC50 was more than 4 µM in experiment [1] (Homo sapiens, Keratinocyte) and 400 to 4000 nM in experiment [2].
For the compound `O=C(N[C@H](c1cn2ncc(CC3CCNC3=O)cc2n1)C1CCC(F)(F)CC1)c1nonc1C1CC1` (single isomer, unassigned) [Example 22, 4-Cyclopropyl-N—[(S)-(4,4-difluorocyclohexyl)-[7-[[(3S*)-2-oxopyrrolidin-3-yl]methyl]imidazo[1,2-b]pyridazin-2-yl]methyl]-1,2,5-oxadiazole-3-carboxamide], the IC50 in experiment [1] is more than 4 µM; in experiment [2] it was more than 4000 nM.
As for `O=C(N[C@H](c1cn2ncc(CC3CCCCNC3=O)cc2n1)C1CCC(F)(F)CC1)c1nonc1C1CC1` (single isomer, unassigned) [Example 25, 4-Cyclopropyl-N—((S)-(4,4-difluorocyclohexyl(7-(((R*)-2-oxoazepan-3-yl)methyl)imidazo[1,2-b]pyridazin-2-yl)methyl)-1,2,5-oxadiazole-3-carboxamide], the IC50 was more than 4 µM in experiment [1] (Homo sapiens, Keratinocyte) and 400 to 4000 nM in experiment [2].
Regarding `O=C(N[C@H](c1cn2ncc(CC3CCCCNC3=O)cc2n1)C1CCC(F)(F)CC1)c1nonc1C1CC1` (single isomer, unassigned) [Example 26, 4-Cyclopropyl-N—((S)-(4,4-difluorocyclohexyl)(7-(((S*)-2-oxoazepan-3-yl)methyl)imidazo[1,2-b]pyridazin-2-yl)methyl)-1,2,5-oxadiazole-3-carboxamide], the results for the IC50 in experiment [1] and in experiment [2] were more than 4 µM and 400 to 4000 nM, respectively.
For `CC1(Cc2cnn3cc([C@@H](NC(=O)c4nonc4C4CC4)C4CCC(F)(F)CC4)nc3c2)CCCNC1=O` (single isomer, unassigned) [Example 27, 4-Cyclopropyl-N—((S)-(4,4-difluorocyclohexyl)(7-(((R*)-3-methyl-2-oxopiperidin-3-yl)methyl)imidazo[1,2-b]pyridazin-2-yl)methyl)-1,2,5-oxadiazole-3-carboxamide], the IC50 was more than 4 µM in experiment [1] and 400 to 4000 nM in experiment [2].
